Data as given in patent US20200085839A1, “COMBINATION OF IMMUNOTHERAPEUTICS AND BISFLUOROALKYL-1,4-BENZODIAZEPINONE COMPOUNDS FOR TREATING LYMPHOMAS” (Ayala Pharmaceuticals Inc., priority 2018, published 2020).

How the values were obtained:
[1] = tested on: BCMA negative CD19 positive Raji Burkett lymphoma cell line; assay: Lysis of BCMA negative cells by BCMA-CAR-T cells and/or Compound (1); assay type: cell-based, human; settings: combination with BCMA-CAR-T cells or each alone
Multiple Myeloma = assay: Anti-tumor activity of CAR-BCMA T cells and Compound (1) in patients; assay type: in vivo, human; settings: CAR-BCMA T cells with a composition comprising Compound (1)
Method: All patients receive 3 doses of 300 mg/m^2 cyclophosphamide and 3 doses of 30 mg/m^2 fludarabine. Chemotherapy is administered because recipient leukocyte depletion enhances the activity of adoptively transferred T cells. Both chemotherapy agents are administered daily on days −5, −4, and −3 before CAR-BCMA T-cell infusion on day 0. CAR-BCMA T cells are administered to each patient with a composition comprising Compound (1). The dose escalation plan calls for an initial dose of 0.3×10^6 CAR^+ T cells/kg with threefold increases to each subsequent dose level.
Myeloma staging is conducted according to the International Uniform Response Criteria for Multiple Myeloma. Toxicity is graded by the Common Terminology Criteria for Adverse Events version 4.02. Two weeks, 1 month, 2 months, 3 months, and 6 months after CAR-BCMA infusion, MM is assessed with standard staging tests.
Autologous peripheral blood mononuclear cells (PBMCs) are cultured with an anti-CD3 monoclonal antibody to induce T-cell proliferation. The cells are transduced with the γ-retroviral vector that encodes that CAR, and 9 days after the initiation of cultures, CAR-BCMA T cells are infused.
CAR-BCMA T cells are detected by flow cytometry after staining with a phycoerythrin-labeled BCMA constant-fragment reagent (PE-BCMA-Fc). CAR-BCMA T cells are also detected by performing quantitative PCR (qPCR). […]

RS411 cells (B-ALL) = assay: Cell surface BCMA by FACS; assay type: cell-based, human
Method: (§1) Cells were seeded at 1×10^4 cells/well in a total volume of 250 μl into a 96-well plate. The cells were cultured in RPMI supplemented with 10% FCS.
(§2) The tested compounds (Compound 1 and Compound 22) were added to the cell cultures at concentrations of: 0, 10, 1, 0.5, 0.1, 0.01, 0.001 μM ([…], 10 nM, 100 nM, 500 nM, 1000 nM, and 10000 nM). Following 24 hours of incubation at 37° C., the cells were collected and stained with anti-BCMA antibody and immediately analyzed by FACS.
(§3) […] cell lines, comprising 9 subtypes of lymphomas (see Table 1), were seeded at 1×10^5 cells/well in a total volume of 250 μl into a 96-well plate. The cells were cultured in RPMI medium supplemented with 10% FCS. Compound (22) was added to the cell cultures at a concentration of 10 μM, 1 μM, 100 nM, 10 nM, 1 nM, 100 pM, 10 pM, 1 pM, and 100 fM, and cell lines (8 from Hadassah Medical Center, 31 from Eurofins) were incubated at 37° C. for 24 hours with Compound (22). Following incubation, the cells were collected and BCMA levels were evaluated on the cell surface for cell-bound BCMA. Cells were stained with an anti-BCMA antibody (PE anti-human 19F2 BCMA, Biolegend), and cell surface BCMA levels were determined by FACS analysis (Mean Fluorescence Intensity. Soluble BCMA levels were analyzed by ELISA (Human BCMA/TNFRSF17 DuoSet kit: R&D Systems).

Toledo cells (DLBCL) = assay: Cell surface BCMA by FACS; assay type: cell-based, human
Method: as §1, §2, §3

[2] = tested on: SUDHL-4 (Haddasah) cells (DLBCL); assay: Cell surface BCMA by FACS; assay type: cell-based, human
Method: as §1, §2, §3

REH cells (B-ALL) = assay: Cell surface BCMA by FACS; assay type: cell-based, human
Method: as §1, §2, §3

RC cells (DLBCL) = assay: Cell surface BCMA by FACS; assay type: cell-based, human
Method: as §1, §2, §3

SUDHL-6 cells (DLBCL) = assay: Cell surface BCMA by FACS; assay type: cell-based, human
Method: as §1, §2, §3

[3] = tested on: SP49 cells (Mantle Cell Lymphoma); assay: Cell surface BCMA by FACS; assay type: cell-based, human
Method: as §1, §2, §3

018Z cells (B-ALL) = assay: Cell surface BCMA by FACS; assay type: cell-based, human
Method: as §1, §2, §3

[4] = tested on: H9 cells (Cutaneous T-cell Lymphoma); assay: Soluble (shed) BCMA by ELISA; assay type: cell-based, human
Method: as §3

[5] = tested on: Raji cells (Burkitt's Lymphoma); assay: Soluble (shed) BCMA by ELISA; assay type: cell-based, human
Method: as §3

[6] = tested on: Daudi cells (Burkitt's Lymphoma); assay: Soluble (shed) BCMA by ELISA; assay type: cell-based, human
Method: as §3

[7] = tested on: SUDHL-4 (Eurofins) cells (DLBCL); assay: Soluble (shed) BCMA by ELISA; assay type: cell-based, human
Method: as §3

[8] = tested on: JVM-2 cells (Mantle Cell Lymphoma); assay: Soluble (shed) BCMA by ELISA; assay type: cell-based, human
Method: as §3

[9] = Homo sapiens, read-out: Shed BCMA (pg/ml) EC50

`CN1C(=O)[C@@H](NC(=O)[C@H](CCC(F)(F)F)[C@H](CCC(F)(F)F)C(N)=O)N=C(c2ccccc2)c2ccccc21` [Compound 1, (2R,3S)—N-((3S)-1-methyl-2-oxo-5-phenyl-2,3-dihydro-1H-1,4-benzodiazepin-3-yl)-2,3-bis(3,3,3-trifluoropropyl)succinamide] was tested. Which “lysis of BCMA negative cells” value [1] did it give?
The value was “neither the BCMA-CAR-T cells and Compound (1) combination nor each alone lyses”.

And the anti-tumor response (Multiple Myeloma)?
Its anti-tumor response is “improved anti-tumor response compared to either BCMA targeted CAR-T or Compound (1) treatment alone”.

With `Cc1cccc2c1NC(=O)[C@@H](NC(=O)[C@H](CCC(F)(F)F)[C@H](CCC(F)(F)F)C(N)=O)N=C2c1cccc(F)c1` [Compound (22), (2R,3S)—N-((3S)-5-(3-fluorophenyl)-9-methyl-2-oxo-2,3-dihydro-1H-1,4-benzodiazepin-3-yl)-2,3-bis(3,3,3-trifluoropropyl)succinamide] as the molecule, how does the “mBCMA (MFI) Fold Increase” value (RS411 cells (B-ALL)) read?
The value was 0.9 fold.

What about the “BCMA (Mean Fluorescence Intensity) 1 nM Compound (22)” value (RS411 cells (B-ALL); 1 nM, 24 h) of the same molecule?
Its value is 2273.

What about the “BCMA (Mean Fluorescence Intensity) 100 nM Compound (22)” value (RS411 cells (B-ALL); 100 nM, 24 h) of the same molecule?
The value was 2518.

And the “mBCMA (MFI) Fold Increase” value (Toledo cells (DLBCL))?
Its value is 3.2 fold.

And the “BCMA (Mean Fluorescence Intensity) 1 nM Compound (22)” value (Toledo cells (DLBCL); 1 nM, 24 h)?
Its value is 7541.

What about the “BCMA (Mean Fluorescence Intensity) 100 nM Compound (22)” value (Toledo cells (DLBCL); 100 nM, 24 h) of the same molecule?
Its value is 9580.

And the “mBCMA (MFI) Fold Increase” value ([2]; SUDHL-4 (Haddasah))?
The value was 2.5 fold.

And the “BCMA (Mean Fluorescence Intensity) 1 nM Compound (22)” value ([2]; SUDHL-4, 1 nM, 24 h)?
Its value is 16100.

What about the “BCMA (Mean Fluorescence Intensity) 100 nM Compound (22)” value ([2]; SUDHL-4, 100 nM, 24 h) of the same molecule?
Its value is 23438.

And the “mBCMA (MFI) Fold Increase” value (REH cells (B-ALL))?
The value was 0.9 fold.

What about the “BCMA (Mean Fluorescence Intensity) 1 nM Compound (22)” value (REH cells (B-ALL); 1 nM, 24 h) of the same molecule?
Its value is 5559.

And the “BCMA (Mean Fluorescence Intensity) 100 nM Compound (22)” value (REH cells (B-ALL); 100 nM, 24 h)?
Its value is 6463.

And the “mBCMA (MFI) Fold Increase” value (RC cells (DLBCL))?
The value was 2.9 fold.

What about the “BCMA (Mean Fluorescence Intensity) 1 nM Compound (22)” value (RC cells (DLBCL); 1 nM, 24 h) of the same molecule?
The value was 12970.

What about the “BCMA (Mean Fluorescence Intensity) 100 nM Compound (22)” value (RC cells (DLBCL); 100 nM, 24 h) of the same molecule?
The value was 15001.

What about the “mBCMA (MFI) Fold Increase” value (SUDHL-6 cells (DLBCL)) of the same molecule?
The value was 2.6 fold.

What about the “BCMA (Mean Fluorescence Intensity) 1 nM Compound (22)” value (SUDHL-6 cells (DLBCL); 1 nM, 24 h) of the same molecule?
Its value is 22915.

And the “BCMA (Mean Fluorescence Intensity) 100 nM Compound (22)” value (SUDHL-6 cells (DLBCL); 100 nM, 24 h)?
Its value is 24812.

And the “mBCMA (MFI) Fold Increase” value [3]?
Its value is 3.3 fold.

What about the “BCMA (Mean Fluorescence Intensity) 1 nM Compound (22)” value ([3]; 1 nM, 24 h) of the same molecule?
The value was 12697.

What about the “BCMA (Mean Fluorescence Intensity) 100 nM Compound (22)” value ([3]; 100 nM, 24 h) of the same molecule?
Its value is 17462.

What about the “mBCMA (MFI) Fold Increase” value (018Z cells (B-ALL)) of the same molecule?
Its value is 0.9 fold.

What about the “BCMA (Mean Fluorescence Intensity) 1 nM Compound (22)” value (018Z cells (B-ALL); 1 nM, 24 h) of the same molecule?
The value was 4121.

What about the “BCMA (Mean Fluorescence Intensity) 100 nM Compound (22)” value (018Z cells (B-ALL); 100 nM, 24 h) of the same molecule?
The value was 4500.

And the “Shed BCMA (pg/ml) % Reduction” value [4]?
Its value is “BLQ”.

What about the EC50 [4, 9] of the same molecule?
Its EC50 is > 10000 nM.

What about the “Shed BCMA (pg/ml) % Reduction” value [5] of the same molecule?
Its value is 99%.

And the “soluble BCMA 1 nM Compound (22)” value ([5]; 1 nM, 24 h)?
The value was 81.4.

And the “soluble BCMA 10 nM Compound (22)” value ([5]; 10 nM, 24 h)?
The value was 29.7.

What about the “soluble BCMA 100 nM Compound (22)” value ([5]; 100 nM, 24 h) of the same molecule?
The value was 26.3.

And the EC50 [5, 9]?
Its EC50 is 0.3 nM.

What about the “Shed BCMA (pg/ml) % Reduction” value [6] of the same molecule?
Its value is 100%.

And the “soluble BCMA 1 nM Compound (22)” value ([6]; 1 nM, 24 h)?
The value was 162.6.

And the “soluble BCMA 10 nM Compound (22)” value ([6]; 10 nM, 24 h)?
The value was 36.8.

And the “soluble BCMA” value ([6]; FIG. 7B)?
The value was “decreased soluble BCMA”.

What about the EC50 [6, 9] of the same molecule?
The EC50 was 0.5 nM.

And the “Shed BCMA (pg/ml) % Reduction” value [7]?
The value was 87%.

What about the EC50 ([7]; Homo sapiens, SU-DHL-4, read-out: Shed BCMA (pg/ml) EC50) of the same molecule?
Its EC50 is 6.6 nM.

And the “Shed BCMA (pg/ml) % Reduction” value [8]?
Its value is 57%.

What about the EC50 [8, 9] of the same molecule?
The EC50 was 75.3 nM.
